Reference: US20050084916A1, “Identification of the IkappaBNS protein and its products” (priority 2001, published 2005)

Legend:
[1] = system: thymocytes in N15tg RAG-2−/− H-2b FTOC; settings: cited from earlier work
IκBNS mRNA = format: cell-based, mouse
NF-κB [2] = assay: NF-κB luciferase reporter assay in transfected Cos-7 cells; format: cell-based
NF-κB [3] = assay: NF-κB-sensitive reporter constructs in transiently transfected Jurkat T cells; format: cell-based

CC(C)C[C@H](N)C(=O)O [L4]
thymic selection outcome [1]: positive selection | IκBNS mRNA induction (IκBNS mRNA): do not upregulate

CCCCCCCCCCCCCC(=O)O[C@@H]1[C@@H](C)[C@@]2(O)[C@@H](C=C(CO)C[C@]3(O)C(=O)C(C)=C[C@@H]23)[C@@H]2C(C)(C)[C@]12OC(C)=O [PMA, phorbol-12-myristate-13-acetate]
increase in NF-κB luciferase activity relative to untreated cells (NF-κB [2]; 50 ng/ml for 7 h): 5-10 fold

B1: IκBNS: novel 327 amino acid IκB family protein with 7 ankyrin domains (SEQ ID NO: 4); expressed from Flag-tagged pcDNA3.1 construct (protein)
chain: MEDSLDTRLYPEPSLSQVGSWRVSSLPSGSPQLPSPTGPSLETARAHILALGPQQLLAQMEDDTYSLQGWRVSPSGPQPGPSLEARAHLALGPQQLLAQDEEGDTLLHLFAARGLRWAAYAAAEVLQMYRQLDIREHKGKTPLLVAAAANQPLIVEDLLDEEGDTLLHLFAARGLRWAAYAAAEVLQYRLDIREHKGKTPLLVAAAANQPLIVEDLLSLGAEPNATDHQGRSVLHVAATYGLPGVLSAVFKSGIQVDLEARDFEGLTPLHTAVLALNLGAEPNADHQGRSVLHVAATYGLPGVLAVSGQVDLEARDFEGLTPLHTALALNAAMLPASVCPRMQNSQARDRLTCVQMLLQMGASHTSQEIKSNKTILHLAVQAANPTLVQLAMPCPRQARDRLCVMLLQMGAHTSQEIKSNKTLHLAVQAANPTLVQLLLGLPRGDLRAFVNMKAHGNTALHMAAALPPGPPQEAIVRHLLAAGADPTLRNLENEQPVLLLPRGDLRFVNMKAHGNTALHMAAALPPGPQEAIVRHLLAAGADPTLRNLEGEQPVHLLRPGGPEGLRQLLKRSRTAPPGLSSHLLRPGGPEGLRQLLKRSRAPPGLSS
modifications: Flag tag; mouse
notes: expressed from Flag-tagged pcDNA3.1 construct
activity of NF-κB-sensitive reporter constructs (NF-κB [3]): reduced the activity | effect of cotransfection on PMA-induced NF-κB-driven luciferase activity (NF-κB [2]; 10 μg construct, PMA 50 ng/ml 7 h): reduced NF-κB-driven luciferase activity to a level approaching that of cells transfected with the vector only
